Experimental data: patent US20260200920A1, “SUBSTITUTED AMINOPYRIDINE COMPOUNDS FOR USE AS AKT1 INHIBITORS” (Atavistik Bio, Inc., priority 2023, published 2026)
Blank lines part the entries; values can stand above or below the compound they belong to.

What was measured:
[1] = biological target: T1, human recombinant kinase full-length AKT1 E17K (Homo sapiens, UniProt P31749, E17K); test: AKT1 E17K kinase assay (TR-FRET, Lance); format: biochemical; conditions: 0.6 nM AKT1 E17K, 50 nM Ulight-CREBtide, either 50 μM ATP or 2 mM ATP, 60 min at RT
T1 construct: Purified human recombinant kinase full-length AKT1 E17K was expressed in insect cells; made in house; host or cells: insect cells
How it was run: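 Full-length AKT1 E17K from insect cells, PDPK1-activated, at 0.6 nM with 50 nM Ulight-CREBtide and 50 μM or 2 mM ATP, pH 7.5, 1% DMSO. Enzyme and compound preincubated 15 min, reaction run 60 min at RT; Eu-anti-phospho-CREB (Ser133) TR-FRET 665/620 ratio, 10-point curve, IC50 by 4-parameter fit.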

[2] = biological target: T2, human recombinant kinase full-length wildtype AKT1 (Homo sapiens, UniProt P31749); test: AKT1 kinase assay (wildtype, TR-FRET, Lance); format: biochemical; conditions: 0.6 nM wildtype AKT1, 50 nM Ulight-CREBtide, either 50 μM ATP or 2 mM ATP, 60 min at RT
T2 construct: Purified human recombinant kinase full-length wildtype AKT1 was expressed in insect cells; made in house; host or cells: insect cells
How it was run: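 Insect-cell-expressed full-length human AKT1, PDPK1-activated (0.6 nM), preincubated with compound 15 min at RT, then reacted 60 min at RT with 50 nM ULight-CREBtide and 50 μM or 2 mM ATP (pH 7.5, 1% DMSO). Phospho-CREBtide read by Eu-anti-phospho-Ser133 TR-FRET (665/620 ratio); IC50 from 10-point 4-parameter fit.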

T1 sequence (P31749 whole entry E17K): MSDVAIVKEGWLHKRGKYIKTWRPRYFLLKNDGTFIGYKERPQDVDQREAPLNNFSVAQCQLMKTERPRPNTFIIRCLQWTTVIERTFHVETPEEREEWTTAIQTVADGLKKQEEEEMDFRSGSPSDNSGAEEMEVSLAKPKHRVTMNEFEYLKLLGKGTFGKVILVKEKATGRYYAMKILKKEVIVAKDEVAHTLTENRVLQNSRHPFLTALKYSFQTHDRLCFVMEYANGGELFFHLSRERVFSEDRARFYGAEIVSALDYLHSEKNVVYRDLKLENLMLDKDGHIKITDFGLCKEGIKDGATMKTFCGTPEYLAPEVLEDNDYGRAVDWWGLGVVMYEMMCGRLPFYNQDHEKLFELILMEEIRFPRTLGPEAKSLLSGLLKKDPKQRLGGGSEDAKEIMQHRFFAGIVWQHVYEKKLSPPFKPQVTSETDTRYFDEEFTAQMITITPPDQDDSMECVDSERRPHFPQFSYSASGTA
T2 sequence (P31749 whole entry): as the sequence (P31749 whole entry E17K) above, with K17E counted along it

SMILES: Nc1ncccc1-c1nc2ccc(-c3ccccc3)nc2n1-c1ccc(CN2CCC(C(=O)O)CC2)c(F)c1 [Compound I-30, 1-(4-(2-(2-aminopyridin-3-yl)-5-phenyl-3H-imidazo[4,5-b]pyridin-3-yl)-2-fluorobenzyl)piperidine-4-carboxylic acid]
IC50 [1]: ≥ 2000 nM | IC50 [2]: < 20 µM

SMILES: Nc1ncccc1-c1nc2ccc(C3CCOCC3)cc2n1-c1ccc(NC(=O)[C@H]2CC[C@H](C(=O)O)CC2)cc1 [Compound I-34, (1r,4r)-4-((4-(2-(2-aminopyridin-3-yl)-6-(tetrahydro-2H-pyran-4-yl)-1H-benzo[d]imidazol-1-yl)phenyl)carbamoyl)cyclohexane-1-carboxylic acid]
IC50 [1]: ≥ 2000 nM | IC50 [2]: < 20 µM

SMILES: CC(C)(C)c1ccc2nc(-c3cccnc3N)n(-c3ccc(NC(=O)[C@H]4CC[C@H](C(=O)O)CC4)cc3)c2c1 [Compound I-35, (1r,4r)-4-((4-(2-(2-aminopyridin-3-yl)-6-(tert-butyl)-1H-benzo[d]imidazol-1-yl)phenyl)carbamoyl)cyclohexane-1-carboxylic acid]
IC50 [1]: ≥ 2000 nM | IC50 [2]: < 20 µM

SMILES: Nc1ncccc1-c1nc2ccc(-c3ccccc3)nc2n1-c1ccc(CN2CCC(C(=O)O)CC2)cc1 [Compound I-29, 1-(4-(2-(2-aminopyridin-3-yl)-5-phenyl-3H-imidazo[4,5-b]pyridin-3-yl)benzyl)piperidine-4-carboxylic acid]
IC50 [1]: 500 to 2000 nM | IC50 [2]: < 20 µM

SMILES: Cc1cc(C2CN(C[C@H]3CC[C@H](C(=O)O)CC3)C2)ccc1-n1c(-c2cccnc2N)nc2ccc(-c3ccccc3)cc21 [Compound I-223]
IC50 [1]: ≥ 2000 nM | IC50 [2]: < 20 µM

SMILES: Nc1ncccc1-c1nc2cc(-c3cccnc3)cnc2n1-c1ccc(C2CN(C[C@H]3CC[C@H](C(=O)O)CC3)C2)cc1 [Compound I-73, (1r,4r)-4-((3-(4-(2-(2-aminopyridin-3-yl)-6-(pyridin-3-yl)-3H-imidazo[4,5-b]pyridin-3-yl)phenyl)azetidin-1-yl)methyl)cyclohexane-1-carboxylic acid]
IC50 [1]: ≥ 2000 nM | IC50 [2]: < 20 µM

SMILES: Nc1ncccc1-c1nc2ccc(-c3ccccc3)nc2n1-c1ccc(C2CCN(C[C@H]3CC[C@H](C(=O)O)CC3)CC2)cc1 [Compound I-190]
IC50 [1]: 500 to 2000 nM | IC50 [2]: < 20 µM

SMILES: CC1(C)CC(C(=O)O)CCC1CN1CCC(c2ccc(-n3c(-c4cccnc4N)nc4ccc(-c5ccccc5)nc43)cc2)CC1 (centres unmarked) [Compound I-194]
IC50 [1]: 500 to 2000 nM | IC50 [2]: < 20 µM

SMILES: CC(C)(C)c1ccc2nc(-c3cccnc3N)n(-c3ccc(NC(=O)[C@H]4CC[C@H](C(=O)O)CC4)nc3)c2c1 [Compound I-117, (1r,4r)-4-((5-(2-(2-aminopyridin-3-yl)-6-(tert-butyl)-1H-benzo[d]imidazol-1-yl)pyridin-2-yl)carbamoyl)cyclohexane-1-carboxylic acid]
IC50 [1]: ≥ 2000 nM | IC50 [2]: < 20 µM

SMILES: CC(C(=O)O)C1CCN(Cc2ccc(-n3c(-c4cccnc4N)nc4ccc(-c5ccccc5)nc43)cc2)CC1 (centres unmarked) [Compound I-98, 2-(1-(4-(2-(2-aminopyridin-3-yl)-5-phenyl-3H-imidazo[4,5-b]pyridin-3-yl)benzyl)piperidin-4-yl)propanoic acid]
IC50 [1]: ≥ 2000 nM | IC50 [2]: < 20 µM

SMILES: CC(C)(N[C@@H]1CC[C@H](C(=O)O)C1)c1ccc(-n2c(-c3cccnc3N)nc3ccc(-c4ccccc4)nc32)cc1 [Compound I-88, (1S,3R)-3-((2-(4-(2-(2-aminopyridin-3-yl)-5-phenyl-3H-imidazo[4,5-b]pyridin-3-yl)phenyl)propan-2-yl)amino)cyclopentane-1-carboxylic acid]
IC50 [1]: ≥ 2000 nM | IC50 [2]: < 20 µM

SMILES: COC(=O)[C@H]1CC[C@H](C(=O)Nc2ccc(-n3c(-c4cccnc4N)nc4ccc(-c5ccccc5)nc43)cn2)CC1 [Compound I-113, methyl (1r,4r)-4-((5-(2-(2-aminopyridin-3-yl)-5-phenyl-3H-imidazo[4,5-b]pyridin-3-yl)pyridin-2-yl)carbamoyl)cyclohexane-1-carboxylate]
IC50 [1]: 500 to 2000 nM | IC50 [2]: < 20 µM

SMILES: Cc1cc(C2CN(C[C@H]3CC[C@@H](C(=O)O)CC3)C2)ccc1-n1c(-c2cccnc2N)nc2ccc(-c3ccccc3)cc21 [Compound I-222]
IC50 [1]: 500 to 2000 nM | IC50 [2]: < 20 µM

SMILES: Cc1nc(NC2CCC(C(=O)O)CC2)ccc1-n1c(-c2cccnc2N)nc2ccc(-c3ccccc3)nc21 (centres unmarked) [Compound I-109, 4-((5-(2-(2-aminopyridin-3-yl)-5-phenyl-3H-imidazo[4,5-b]pyridin-3-yl)-6-methylpyridin-2-yl)amino)cyclohexane-1-carboxylic acid]
IC50 [1]: 500 to 2000 nM | IC50 [2]: < 20 µM

SMILES: CC(C)C([C@H]1CC[C@H](C(=O)O)CC1)N1CC(c2ccc(-n3c(-c4cccnc4N)nc4ccc(-c5ccccc5)nc43)cc2)C1 (some centres unmarked) [Compound I-143]
IC50 [1]: 500 to 2000 nM | IC50 [2]: < 20 µM

Other lines, results leading:

IC50 [1]: < 500 nM | IC50 [2]: < 20 µM
SMILES: Cc1cc2nc(-c3cccnc3N)n(-c3ccc(C4CN(C[C@H]5CC[C@H](C(=O)O)CC5)C4)cc3)c2nc1-c1ccccc1 [Compound I-235, trans-4-((3-(4-(2-(2-aminopyridin-3-yl)-6-methyl-5-phenyl-3H-imidazo[4,5-b]pyridin-3-yl)phenyl)azetidin-1-yl)methyl)cyclohexane-1-carboxylic acid]

IC50 [1]: < 500 nM | IC50 [2]: < 20 µM
SMILES: Nc1ncccc1-c1nc2ccc(-c3ccccc3)nc2n1-c1ccc(C2CCN(C(=O)[C@H]3CC[C@H](C(=O)O)CC3)CC2)cc1 [Compound I-198]

IC50 [1]: 500 to 2000 nM | IC50 [2]: < 20 µM
SMILES: Cc1nc(NC(=O)[C@H]2CC[C@H](C(=O)O)CC2)ccc1-n1c(-c2cccnc2N)nc2ccc(-c3ccccc3)cc21 [Compound I-127, (1r,4r)-4-((5-(2-(2-aminopyridin-3-yl)-6-phenyl-1H-benzo[d]imidazol-1-yl)-6-methylpyridin-2-yl)carbamoyl)cyclohexane-1-carboxylic acid]

IC50 [1]: 500 to 2000 nM | IC50 [2]: < 20 µM
SMILES: Cc1cc(C2(C)CN(C[C@H]3CC[C@H](C(=O)O)CC3)C2)ccc1-n1c(-c2cccnc2N)nc2ccc(-c3ccccc3)nc21 [Compound I-156]

IC50 [1]: 500 to 2000 nM | IC50 [2]: < 20 µM
SMILES: Cc1cc(C2CN(C[C@H]3CC[C@@H](C(=O)O)CC3)C2)ccc1-n1c(-c2cccnc2N)nc2ccc(-c3ccccc3F)nc21 [Compound I-210]

IC50 [1]: < 500 nM | IC50 [2]: < 20 µM
SMILES: CN(Cc1ccc(-n2c(-c3cccnc3N)nc3ccc(-c4ccccc4)nc32)cc1)[C@H]1CC[C@H](CC(=O)O)CC1 [Compound I-169]

IC50 [1]: < 500 nM | IC50 [2]: < 20 µM
SMILES: Nc1ncccc1-c1nc2ccc(-c3ccccc3F)nc2n1-c1ccc(C2CN(CC3CC4CC(C(=O)O)CC4C3)C2)cc1 (centres unmarked) [Compound I-202]

IC50 [1]: 500 to 2000 nM | IC50 [2]: < 20 µM
SMILES: CC(C(=O)O)C1CCN(Cc2ccc(-n3c(-c4cccnc4N)nc4ccc(-c5ccccc5)nc43)cc2)C1 (centres unmarked) [Compound I-104, 2-[1-[[4-[2-(2-amino-3-pyridyl)-5-phenyl-imidazo[4,5-b]pyridin-3-yl]phenyl]methyl]pyrrolidin-3-yl]propanoic acid]

IC50 [1]: 500 to 2000 nM | IC50 [2]: < 20 µM
SMILES: Cc1cc(CN(C)[C@H]2CC[C@@H](C(=O)O)CC2)ccc1-n1c(-c2cccnc2N)nc2ccc(-c3ccccc3)nc21 [Compound I-179]

IC50 [1]: < 500 nM | IC50 [2]: < 20 µM
SMILES: Nc1ncccc1-c1nc2ccc(-c3ccccc3)nc2n1-c1ccc(NC(=O)C2CC3(CC(C(=O)O)C3)C2)c(F)c1 (centres unmarked) [Compound I-47, 6-((4-(2-(2-aminopyridin-3-yl)-5-phenyl-3H-imidazo[4,5-b]pyridin-3-yl)-2-fluorophenyl)carbamoyl)spiro[3.3]heptane-2-carboxylic acid]

IC50 [1]: 500 to 2000 nM | IC50 [2]: < 20 µM
SMILES: CN(Cc1ccc(-n2c(-c3cccnc3N)nc3ccc(-c4ccccc4)nc32)c(F)c1)[C@H]1CC[C@H](C(=O)O)CC1 [Compound I-164]

IC50 [1]: 500 to 2000 nM | IC50 [2]: < 20 µM
SMILES: Cc1nc(NC[C@@H]2CC[C@H](C(=O)O)C2)ccc1-n1c(-c2cccnc2N)nc2ccc(-c3ccccc3)nc21 [Compound I-226]

IC50 [1]: < 500 nM | IC50 [2]: < 20 µM
SMILES: Nc1ncccc1-c1nc2ccc(-c3ccccc3)nc2n1-c1ccc(C2CN(C[C@@H]3CC[C@@H](C(=O)O)C3)C2)cc1 [Compound I-61, (1R,3R)-3-((3-(4-(2-(2-aminopyridin-3-yl)-5-phenyl-3H-imidazo[4,5-b]pyridin-3-yl)phenyl)azetidin-1-yl)methyl)cyclopentane-1-carboxylic acid]

IC50 [1]: < 500 nM | IC50 [2]: < 20 µM
SMILES: Cc1cc(C2CN(CC3CC4(C3)CC(C(=O)O)C4)C2)ccc1-n1c(-c2cccnc2N)nc2ccc(-c3ccccc3)nc21 (centres unmarked) [Compound I-204]

IC50 [1]: < 500 nM | IC50 [2]: < 20 µM
SMILES: CC1(C)C[C@H](CN2CC(c3ccc(-n4c(-c5cccnc5N)nc5ccc(-c6ccccc6)nc54)cc3)C2)CC[C@@H]1C(=O)O [Compound I-70, (1S,4R)-4-((3-(4-(2-(2-aminopyridin-3-yl)-5-phenyl-3H-imidazo[4,5-b]pyridin-3-yl)phenyl)azetidin-1-yl)methyl)-2,2-dimethylcyclohexane-1-carboxylic acid]

IC50 [1]: < 500 nM | IC50 [2]: < 20 µM
SMILES: Nc1ncccc1-c1nc2ccc(-c3ccccc3)nc2n1-c1ccc(C2CN(C(=O)C3CC(=O)CC(=O)C3)C2)cc1 [Compound I-37, 5-(3-(4-(2-(2-aminopyridin-3-yl)-5-phenyl-3H-imidazo[4,5-b]pyridin-3-yl)phenyl)azetidine-1-carbonyl)cyclohexane-1,3-dione]
